Laboratory results from PMC6283615, “Anilinoquinoline based inhibitors of trypanosomatid proliferation” (PLoS Neglected Tropical Diseases, 2018).
≈ marks a conversion by molar mass, not a printed value.

Columns and labels:
[1] = test system: HepG2 cells; assay: Drug toxicity to HepG2 cells (MTT, 48 h); assay type: cell-based, human; settings: tested concentration ranges based on compound solubility
Method: HepG2 cells were cultured in complete Minimal Essential Medium prepared by supplementing MEM with 0.19% sodium bicarbonate, 10% heat inactivated FBS, 2 mM L-glutamine, 0.1 mM MEM non-essential amino, 0.009 mg/mL insulin, 1.76 mg/mL bovine serum albumin, 20 units/mL penicillin–streptomycin, and 0.05 mg/mL gentamycin. HepG2 cells cultured in complete MEM were first washed with 1× Hank’s Balanced Salt Solution (Invitrogen #14175095), trypsinized using a 0.25% trypsin/EDTA solution, assessed for viability using trypan blue, and resuspended at 250,000 cells/mL. Using a Tecan EVO Freedom robot, 38.3 μL of cell suspension were added to each well of clear, cell culture-treated 384-well microtiter plates for a final concentration of 9570 liver cells per well, and plated cells were incubated overnight in 5% CO2 at 37°C. Drug plates were prepared with the Tecan EVO Freedom using sterile 96 well plates containing twelve duplicate 1.6-fold serial dilutions of each test compound suspended in DMSO. 4.25 μL of diluted test compound was then added to the 38.3 μL of media in each well providing a […] final dilution of compound. Compounds were tested from a range of 57 ng/mL to 10,000 ng/mL for all assays. Mefloquine was used as a plate control for all assays with a concentration ranging from 113 ng/mL to 20,000 ng/mL. After a 48 h incubation period, 8 μL of a 1.5 mg/mL solution of MTT diluted in complete MEM media was added to each well. All plates were subsequently incubated in the dark for 1 h at room temperature. After incubation, the media and drugs in each well was removed by shaking the plate over sink, and the plates were left to dry in a fume hood for 15 mins. Next, 30 μL of isopropanol acidified by addition of HCl at a final concentration of 0.36% was added to dissolve the formazan dye crystals created by reduction of MTT. Plates are put on a 3-D rotator for 15–30 mins. Absorbance was determined in all wells using a Tecan iControl 1.6 Infinite plate reader.

[2] = test system: T. cruzi amastigote (Tulahuen strain expressing β-galactosidase); assay: Intracellular T. cruzi assay in 3T3 cells (beta-galactosidase, 96 h); assay type: cell-based, Trypanosoma cruzi; settings: intracellular in 3T3 cells, 96 h; read-out: T. cruzi amastigote EC50
Method: In a 96-well plate, 5×10^4 3T3 cells in DMEM without phenol red supplemented with 2% FBS were added to each well. Cells were incubated for 2 h to allow for attachment. Compounds were added in triplicates at 50 μM and in serial dilutions 1:2. To each well, 5×10^4 T. cruzi trypomastigotes (Tulahuen strain expressing β-galactosidase) were added and incubated at 37°C, 5% CO2 for 96 h. Following incubation, 50 μL of 500 μM chlorophenol Red-β-D-galactopyranoside (CPRG) in phosphate-buffered saline with 0.5% NP40 was added to each well and incubated at 37°C, 5% CO2 for 4 h. Absorbance was read at 590–595 nm.

[3] = test system: NIH/3T3 cells; assay: Drug toxicity to 3T3 cells (Alamar Blue, 96 h); assay type: cell-based
Method: In a 96-well plate, 5×10^4 NIH/3T3 (ATCC CRL-1658) cells (purchased from ATCC) in DMEM without phenol red supplemented with 2% FBS were added to each well. Cells were incubated for 2 h to allow for attachment. Compounds were added in triplicates at 200 μM and in serial dilutions 1:2 and incubated at 37°C, 5% CO2 for 96 h. […] Following incubation, 10 μL of Alamar Blue (ThermoFisher) were added to each well and cells incubated at 37°C, 5% CO2 for 4 h. Absorbance was read at 590–595 nm.

[4] = molecular target: L. major amastigote; assay: L. major intracellular amastigote luciferase assay in RAW 264.7 macrophages; assay type: cell-based, Leishmania major; settings: intracellular amastigotes in RAW 264.7 macrophages, 96 h
Method: Amastigote assays were performed using pLEXSY-hyg2-luciferase L. major transfected promastigotes and the murine RAW 264.7 macrophage cell line (ATCC TIB-71, Manassas, VA). Briefly, luciferase-expressing promastigotes of each Leishmania species were generated by adding a luciferase encoding region to the pLEXSY-hyg2 vector (Jena Biosciences, Germany) as described. One μg of the linearized pLEXSY-hyg2-luciferase vector were electroporated (480 V, 13 Ω, and 500 μF) into 4×10^7 Leishmania promastigotes. Selection for stable promastigote transfectants was carried out using hygromycin B (100 μg/mL). RAW 264.7 macrophages were maintained in growth medium (Dulbecco’s Modified Eagle’s Medium supplemented with heat-inactivated 10% FBS (Life Technologies)). Cells were harvested and resuspended in growth medium at 2.0×10^5 cells/mL, and 1×10^4 cells/well were dispensed (final volume 50 μL) in each well of a 384 well tissue-culture treated white plate using a EVO Freedom liquid handling system (Tecan, Durham, NC). Plates were incubated at 37°C in 5% CO2 for 24 h after which the culture medium was removed from each well using the EVO Freedom liquid handler. Metacyclic phase pLEXSY-hyg2-luciferase-Leishmania promastigotes (MOI = 1:10 L. major) were added to each assay plate well and allowed to infect the RAW 264.7 macrophages. After an overnight incubation, the growth medium was aspirated and each well was washed three times with 40 μL of fresh growth medium to remove non-internalized promastigotes. After the third wash, 69.2 μL of growth medium was added to each well. Compound dilutions (final concentration ranges 0.5–10,000 ng/mL) were generated and dispensed using the liquid handling system. Compound treated plates were incubated at 37°C in 5% CO2 for 96 h. After incubation, 7.5 μL of a luciferin solution (Caliper Life Science, Waltham, MA) diluted to 150 μg/mL was added to each well, and the plates were incubated for 30 min at 37°C in the dark. Data were captured using an Infinite M200 plate reader (Tecan). EC50s were generated for each concentration response test using GraphPad Prism software 6.0.

[5] = test system: T. b. brucei (strain 427); assay: T. b. brucei proliferation assay (PrestoBlue, 48 h); assay type: cell-based, Trypanosoma brucei brucei
Method: The assay was performed following a previously reported procedure. Briefly, in a 96-well plate, compounds were added in triplicates at 50 μM and in serial dilutions 1:2 in HMI-9 medium. To each well, 100 μL of 2.5×10^3 T. b. brucei (strain 427, received as a gift from Dr. C. C. Wang at UCSF) in HMI-9 medium was were added and incubated at 37°C, 5% CO2 for 48 h. Following incubation, 20 μL of PrestoBlue were added to each well and incubated for additional 4 h. Fluorescence was read at 530 nm excitation and 590 nm emission.

[6] = LogD7.4; assay type: physicochemical; settings: pH 7.4
[7] = Aqueous solubility; assay type: physicochemical
[8] = Rat hepatocyte intrinsic clearance; assay type: in vitro ADME
[9] = Human liver microsome intrinsic clearance; assay type: in vitro ADME
[10] = Human plasma protein binding; assay type: in vitro ADME

Compound | HepG2 TC50 [1] [µM] | EC50 [2] [µM] | 3T3 TC50 [3] [µM] | EC50 [4] [µM] | EC50 [5] [µM] | LogD7.4 [6] | solubility [7] [µM] | Rat Hepatocyte CLint [8] [μL/min/10^6 cells] | Human Liver Microsome CLint [9] [µL/min/mg] | Human PPB [10] [%]
COc1ccc(Nc2ccnc3cc(-c4cnn(C)c4)ccc23)cc1Cl [NEU-2130] | 44 | 1.9 | > 100 | 29 | 2.6 | – | – | – | – | –
Cn1nccc1Nc1ccc2c(Nc3cnccn3)ccnc2c1 [NEU-2144] | 35 | > 50 | > 50 | 28 | 14 | 2.4 | 100 (≈ 31.7 µg/mL) | 16 | 10 | 69
Cc1cc(Nc2ccc3c(Nc4cnccn4)ccnc3c2)sn1 [NEU-2148] | 36 | > 50 | > 100 | 4.7 | 7.6 | 3.5 | 2 (≈ 0.669 µg/mL) | 9 | 28 | –
CN1CCN(S(=O)(=O)c2ccc(-c3ccc4c(Nc5ncc(Cl)cn5)ccnc4c3)cc2)CC1 [NEU-1025] | 31 | 8.8 | 11 | 8.7 | 1.5 | 4.1 | 4.8 (≈ 2.38 µg/mL) | – | – | 99
CN1CCN(S(=O)(=O)c2ccc(-c3ccc4c(Nc5ccnnc5)ccnc4c3)cc2)CC1 [NEU-1020] | 36 | > 50 | > 100 | 22 | > 50 | -0.5 | > 1000 | – | – | 57
c1coc(-c2ccc3c(Nc4cnccn4)ccnc3c2)c1 [NEU-2131] | 53 | 4.7 | > 100 | 35 | 4.8 | 3.8 | 6 (≈ 1.73 µg/mL) | – | 160 | 98
Cc1nnc(Nc2ccnc3cc(-c4ccc(S(=O)(=O)N5CCN(C)CC5)cc4)ccc23)nc1C [NEU-1028] | 6.4 | > 50 | > 100 | 4 | > 50 | 3.4 | 1.5 (≈ 0.734 µg/mL) | – | – | 93
CN1CCN(S(=O)(=O)c2ccc(-c3ccc4c(Nc5cccnc5)ccnc4c3)cc2)CC1 [NEU-1019] | 36 | > 50 | > 100 | 22 | 5.4 | 2 | 175 (≈ 80.4 µg/mL) | – | – | 85
Cn1cc(Nc2ccc3c(Nc4cnccn4)ccnc3c2)cn1 [NEU-2143] | 29 | > 50 | > 50 | 28 | 14 | 1.9 | – | 66 | 10 | 63
Cc1cc(Nc2ccnc3cc(-c4ccc(S(=O)(=O)N5CCN(C)CC5)cc4)ccc23)sn1 [NEU-1023] | 35 | 25 | > 100 | 8.4 | 0.6 | 4.2 | < 1 | – | – | 99
Cc1cc(Nc2ccc3c(Nc4cnccn4)ccnc3c2)on1 [NEU-2150] | 48 | 21 | > 100 | 31 | 29 | – | – | – | – | –
Cc1nnc(Nc2ccc3c(Nc4cnccn4)ccnc3c2)nc1C [NEU-2151] | 22 | > 50 | > 100 | 26 | 2.3 | – | – | – | – | –
CN1CCN(S(=O)(=O)c2ccc(-c3ccc4c(Nc5ccc6[nH]nnc6c5)ccnc4c3)cc2)CC1 [NEU-1018] | 28 | > 50 | > 100 | 17 | > 50 | 3.4 | < 1 | – | – | 98
CN1CCN(S(=O)(=O)c2ccc(-c3ccc4c(Nc5cnc(C#N)cn5)ccnc4c3)cc2)CC1 [NEU-1024] | 31 | > 50 | > 100 | 19 | 3 | 3.7 | < 1 | – | – | 97
Cn1cc(-c2ccc3c(Nc4cnccn4)ccnc3c2)cn1 [NEU-2129] | 40 | 2.4 | 37 | 33 | 3.3 | 2.9 | 4 (≈ 1.21 µg/mL) | 290 | 25 | –
COc1ccc(Nc2ccnc3cc(Nc4ccnc(N5CCN(C)CC5)n4)ccc23)cc1Cl [NEU-2093] | 4.7 | 8.1 | 15 | 4.6 | 0.34 | – | – | 2.3 | 45 | –
Cc1n[nH]c(C)c1Nc1ccc2c(Nc3cnccn3)ccnc2c1 [NEU-2146] | 40 | > 50 | > 100 | 27 | 17 | 1.8 | – | 120 | 8 | 68
